Laboratory results from patent publication US6046192A, “Phenylethanolaminotetralincarboxamide derivatives” (Kissei Pharmaceutical Co., Ltd., priority 1996, dated 2000).

Key:
β2 -adrenergic receptor = target: T1, β2 -adrenergic receptor (Rattus norvegicus, UniProt P10608); assay: Spontaneous contractions of isolated pregnant rat myometrium (β2-adrenergic receptor stimulating activity); details: isolated pregnant rat uterus (SD, pregnancy day 21), Magnus method; read-out: EC50 value (activity to relax 50% of the spontaneous contractions of rat myometrium)
T1 construct: longitudinal uterine muscle strips (about 15 mm in length and about 5 mm in width) free from the basal plate were prepared; from tissue; host or cells: longitudinal uterine muscle strips of pregnant SD rats (pregnancy day 21)
T1 sequence (P10608 whole entry): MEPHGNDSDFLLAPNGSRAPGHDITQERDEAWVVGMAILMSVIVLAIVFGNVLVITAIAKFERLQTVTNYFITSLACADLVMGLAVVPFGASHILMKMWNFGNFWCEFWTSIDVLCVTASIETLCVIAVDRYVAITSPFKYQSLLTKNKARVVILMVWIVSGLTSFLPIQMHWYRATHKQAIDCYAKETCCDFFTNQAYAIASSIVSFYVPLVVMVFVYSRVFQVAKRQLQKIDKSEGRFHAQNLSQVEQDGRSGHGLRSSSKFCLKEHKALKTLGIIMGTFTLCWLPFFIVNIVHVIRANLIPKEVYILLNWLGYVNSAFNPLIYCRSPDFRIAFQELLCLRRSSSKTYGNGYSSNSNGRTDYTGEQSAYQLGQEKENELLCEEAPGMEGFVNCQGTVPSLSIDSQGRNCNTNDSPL
Description: Thus, the compounds of the present invention have a markedly potent β2 -adrenergic receptor stimulating effect and therefore are remarkably useful as β2 -adrenergic receptor stimulating agents.
Action of Drugs on the Spontaneous Contractions of Isolated Pregnant Rat Myometrium
The uteri of pregnant SD rats (pregnancy day 21) were isolated and longitudinal uterine muscle strips (about 15 mm in length and about 5 mm in width) free from the basal plate were prepared. The experiment was conducted according to the Magnus method. The preparations with a tension of 1 g were exposed to Locke-Ringer solution maintained at 37° C. and gassed with a mixture of 95% of oxygen and 5% of carbon dioxide. Spontaneous contractions of myometrium were induced isometrically via a pressure transducer and recorded on a rectigram. The drug efficacy was evaluated as 50% inhibitory drug concentration (i.e., EC50 value) by comparing the total degree of uterine contraction during 5 minutes before the addition of the drug with the total degree of uterine contraction during 5 minutes after the addition of the drug.

β1 -adrenergic receptor = assay: Atrial contraction of isolated rat atrium (β1-adrenergic receptor stimulating activity); details: isolated rat atrium (SD male), Magnus method
Description: Thus, the compounds of the present invention have a markedly weaker β1 -adrenergic receptor stimulating effect in comparison with the aforementioned β2 -adrenergic receptor stimulating effect.
Action of Drugs on the Atrial Contraction of Isolated Rat Atrium
The atria of SD male rats (350 to 400 g in body weight) were isolated and the experiment was conducted according to the Magnus method. The preparations with a tension of 1 g were exposed to Krebs-Henseleit solution maintained at 37° C. and gassed with a mixture of 95% of oxygen and 5% of carbon dioxide. The atrial contraction was induced isometrically via a pressure transducer and recorded on a rectigram. After addition of the drug, its efficacy was evaluated as drug concentration which increases 20 beats per minute of heart rate (i.e., EC20 value).

ICR mice = assay: Acute toxicity; format: in vivo; details: female ICR mice, intravenous, 50 mg/kg in saline
Description: To 4 female ICR mice of 4 weeks age was administered intravenously 2-[(2S)-2-[[(2R)-2-hydroxy-2-(4-hydroxyphenyl)-ethyl]amino]-1,2,3,4-tetrahydronaphthalen-7-yloxy]-N,N-dimethylacetamide dissolved in saline at dose of 50 mg/kg. No death of animals was observed during 24 hours after the administration.

Structure (SMILES): CN(C)C(=O)COc1ccc2c(c1)C[C@@H](NC[C@H](O)c1ccc(O)cc1)CC2 [2-[(2S)-2-[[(2R)-2-Hydroxy-2-(4-hydroxyphenyl)ethyl]-amino]-1,2,3,4-tetrahydronaphthalen-7-yloxy]-N,N-dimethylacetamide]
- EC50 (β2 -adrenergic receptor): 15 nM
- EC20 value (activity to increase rat heart rate 20 beats per minute) (β1 -adrenergic receptor): 1.6×10^-6 molar concentration
- death of animals during 24 hours after the administration (ICR mice): No death
